Drawing on ChEMBL document CHEMBL3351952, “The antimicrobial activity of mono-, bis-, tris-, and tetracationic amphiphiles derived from simple polyamine platforms” (2014), this text covers MIC for 33 molecules.

Holding throughout (assay type): functional
One test deals with Pseudomonas aeruginosa. In words: Antimicrobial activity against wild-type Pseudomonas aeruginosa PAO1 after 72 hrs by broth microdilution method. The note with it: PAO1, 72 h.
Another test has as its system Staphylococcus aureus. Briefly: Antimicrobial activity against Staphylococcus aureus SH1000 after 72 hrs by broth microdilution method. The note with it: SH1000, 72 h. In general terms: Broth dilution looks for growth in wells or tubes with falling amounts of substance.
The test system of the next test is Escherichia coli. In words: Antimicrobial activity against Escherichia coli MC4100 after 72 hrs by broth microdilution method. The note with it: MC4100, 72 h.
The subject of another test is Enterococcus faecalis. In words: Antimicrobial activity against Enterococcus faecalis OG1RF after 72 hrs by broth microdilution method.

Bounds are passed on as bounds.

As a reminder, the MIC is the lowest concentration that inhibits growth of the organism. Take `CCCCCCCCCCCC[N+](C)(C)CCN(C)CCN(C)CC[N+](C)(C)CCCCCCCCCCCC`: the MIC against Pseudomonas aeruginosa was 4 µM; with Staphylococcus aureus, 1 µM; against Escherichia coli, 1 µM; in the test with Enterococcus faecalis it was 1 µM.
On to `CCCCCCCCCC[N+](C)(C)CCCCC[N+](C)(C)CCCCCCCCCC`, for which the minimum inhibitory concentration (MIC) against Pseudomonas aeruginosa was 63 µM; against Staphylococcus aureus, 2 µM; against Escherichia coli, 8 µM; in the test with Enterococcus faecalis, 4 µM.
Taken in the same sequence, the figures for `CCCCCCCCCCCC[N+](C)(C)CCCCC[N+](C)(C)CCCCCCCCCCCC` were 2 µM, 2 µM, 1 µM and 1 µM.
The corresponding values for `CCCCCCCCCCCCCC[N+](C)(C)CCCCC[N+](C)(C)CCCCCCCCCCCCCC` are 16 µM, 1 µM, 4 µM and 1 µM.
As for `CCCCCCCCCCCCCCCC[N+](C)(C)CCCCC[N+](C)(C)CCCCCCCCCCCCCCCC`, the MIC against Pseudomonas aeruginosa came out at 32 µM; in the test on Staphylococcus aureus, 2 µM; in the test with Escherichia coli, 16 µM; against Enterococcus faecalis it was 2 µM.
Take `CCCCCCCCCC[N+](C)(C)CCN(C)CC[N+](C)(C)CCCCCCCCCC`: the MIC in the test with Pseudomonas aeruginosa was found to be 63 µM; with Staphylococcus aureus, 2 µM; against Escherichia coli, 8 µM; against Enterococcus faecalis, 8 µM.
In the case of `CCCCCCCCCCC[N+](C)(C)CCN(C)CC[N+](C)(C)CCCCCCCCCCC`, the MIC in the test with Pseudomonas aeruginosa amounted to 8 µM; against Staphylococcus aureus it was 2 µM; against Escherichia coli it was 2 µM; against Enterococcus faecalis, 2 µM.
On to `CCCCCCCCCCCC[N+](C)(C)CCN(C)CC[N+](C)(C)CCCCCCCCCCCC`, for which the MIC in the test with Pseudomonas aeruginosa is 4 µM; in the test on Staphylococcus aureus it was 1 µM; with Escherichia coli, 2 µM; with Enterococcus faecalis, 1 µM.
As to `CCCCCCCCCCCCCC[N+](C)(C)CCN(C)CC[N+](C)(C)CCCCCCCCCCCCCC`, the MIC stood at 16 µM against Pseudomonas aeruginosa, 2 µM with Staphylococcus aureus, 4 µM in the test with Escherichia coli and 1 µM in the test with Enterococcus faecalis.
The corresponding values for `CCCCCCCCCCCCCCCC[N+](C)(C)CCN(C)CC[N+](C)(C)CCCCCCCCCCCCCCCC` are 32 µM, 4 µM, 16 µM and 2 µM.
The corresponding values for `CCCCCCCCCC[N+](C)(C)CC[N+](C)(C)CC[N+](C)(C)CCCCCCCCCC` are 63 µM, 2 µM, 8 µM and 8 µM.
Consider `CCCCCCCCCCC[N+](C)(C)CC[N+](C)(C)CC[N+](C)(C)CCCCCCCCCCC`, for which the minimum inhibitory concentration (MIC) against Pseudomonas aeruginosa stood at 8 µM; against Staphylococcus aureus, 2 µM; in the test with Escherichia coli, 4 µM; with Enterococcus faecalis, 2 µM.
`CCCCCCCCCCCC[N+](C)(C)CC[N+](C)(C)CC[N+](C)(C)CCCCCCCCCCCC`: the MIC in the test with Pseudomonas aeruginosa is 1 µM; in the test with Staphylococcus aureus, not above 60.2 µM; in the test on Escherichia coli it was 0.5 µM; in the test with Enterococcus faecalis it was not above 60.2 µM.
In the case of `CCCCCCCCCCCCCC[N+](C)(C)CC[N+](C)(C)CC[N+](C)(C)CCCCCCCCCCCCCC`, the MIC came to 8 µM with Pseudomonas aeruginosa, 1 µM against Staphylococcus aureus, 2 µM in the test with Escherichia coli and 1 µM in the test with Enterococcus faecalis.
Turning to `C=CC[N+](C)(CC[N+](C)(C)CCCCCCCCCC)CC[N+](C)(C)CCCCCCCCCC`, the MIC against Pseudomonas aeruginosa came out at 63 µM; against Staphylococcus aureus, 2 µM; against Escherichia coli, 2 µM; in the test on Enterococcus faecalis, 4 µM.
Turning to `C=CC[N+](C)(CC[N+](C)(C)CCCCCCCCCCC)CC[N+](C)(C)CCCCCCCCCCC`, the minimal inhibitory concentration (MIC) against Pseudomonas aeruginosa was 16 µM; in the test with Staphylococcus aureus, 1 µM; with Escherichia coli, 2 µM; against Enterococcus faecalis it was 2 µM.
For `C=CC[N+](C)(CC[N+](C)(C)CCCCCCCCCCCC)CC[N+](C)(C)CCCCCCCCCCCC`, the MIC came to 4 µM with Pseudomonas aeruginosa, 2 µM against Staphylococcus aureus, 2 µM with Escherichia coli and 2 µM in the test on Enterococcus faecalis.
`C=CC[N+](C)(CC[N+](C)(C)CCCCCCCCCCCCCC)CC[N+](C)(C)CCCCCCCCCCCCCC`: the minimum inhibitory concentration (MIC) with Pseudomonas aeruginosa came to 8 µM; with Staphylococcus aureus, 2 µM; against Escherichia coli, 2 µM; in the test on Enterococcus faecalis it was 2 µM.
Take `C=CC[N+](C)(CC[N+](C)(C)CCCCCCCCCCCCCCCC)CC[N+](C)(C)CCCCCCCCCCCCCCCC`: the minimal inhibitory concentration (MIC) in the test on Pseudomonas aeruginosa turned out to be 16 µM; with Staphylococcus aureus, 4 µM; in the test on Escherichia coli it was 8 µM; against Enterococcus faecalis, 4 µM.
Regarding `CCCCCCCCCCCC[N+](C)(C)CCCCCCC[N+](C)(C)CCCCCCCCCCCC`, the minimal inhibitory concentration (MIC) against Pseudomonas aeruginosa is 8 µM; against Staphylococcus aureus it was 1 µM; against Escherichia coli, 2 µM; in the test on Enterococcus faecalis it was 1 µM.
Consider `CCCCCCCCCCCC[N+](C)(C)CCCN(C)CCC[N+](C)(C)CCCCCCCCCCCC`, for which the minimal inhibitory concentration (MIC) was found to be 4 µM against Pseudomonas aeruginosa, 1 µM with Staphylococcus aureus, 1 µM against Escherichia coli and 2 µM against Enterococcus faecalis.
For `CCCCCCCCCCCC[N+](C)(C)CCC[N+](C)(C)CCC[N+](C)(C)CCCCCCCCCCCC`, the MIC against Pseudomonas aeruginosa amounted to 8 µM; in the test on Staphylococcus aureus, 1 µM; in the test on Escherichia coli, 2 µM; against Enterococcus faecalis, 2 µM.
Turning to `C=CC[N+](C)(CCC[N+](C)(C)CCCCCCCCCCCC)CCC[N+](C)(C)CCCCCCCCCCCC`, the minimum inhibitory concentration (MIC) in the test on Pseudomonas aeruginosa came to 4 µM; against Staphylococcus aureus, 1 µM; against Escherichia coli, 2 µM; against Enterococcus faecalis it was 2 µM.
In the case of `CCCCCCCCCCCC[N+](C)(C)CCC[N+](C)(CCCC)CCC[N+](C)(C)CCCCCCCCCCCC`, the MIC was determined as 2 µM against Pseudomonas aeruginosa, 1 µM against Staphylococcus aureus, 1 µM in the test on Escherichia coli and 1 µM in the test with Enterococcus faecalis.
As to `CCCCCCCCCCCC[N+](C)(C)CCC[N+](C)(CCC[N+](C)(C)CCCCCCCCCCCC)Cc1ccccc1`, the MIC against Pseudomonas aeruginosa worked out at 2 µM; in the test with Staphylococcus aureus, 1 µM; against Escherichia coli, 1 µM; in the test on Enterococcus faecalis it was 1 µM.
`CCCCCCCCCCCC[N+](C)(C)CCC[N+](C)(CCC[N+](C)(C)CCCCCCCCCCCC)Cc1ccc(CCCCCCCC)cc1`: the minimum inhibitory concentration (MIC) with Pseudomonas aeruginosa was determined as 4 µM; in the test on Staphylococcus aureus it was 1 µM; in the test on Escherichia coli, 1 µM; against Enterococcus faecalis it was 1 µM.
Regarding `CCCCCCCCCCCC[N+](C)(C)CCC[N+](C)(CCCCCCCCCCCC)CCC[N+](C)(C)CCCCCCCCCCCC`, the MIC is 4 µM against Pseudomonas aeruginosa, 0.5 µM with Staphylococcus aureus, 1 µM in the test on Escherichia coli and 1 µM in the test with Enterococcus faecalis.
`CCCCCCCCCCCC[N+](C)(C)CCN(C)CCN(C)CCN(C)C`: the minimal inhibitory concentration (MIC) stood at 32 µM in the test with Pseudomonas aeruginosa, 8 µM with Staphylococcus aureus, 8 µM against Escherichia coli and 8 µM in the test with Enterococcus faecalis.
Turning to `CCCCCCCCCCCCCC[N+](C)(C)CCN(C)CCN(C)CCN(C)C`, the MIC against Pseudomonas aeruginosa was found to be 125 µM; in the test with Staphylococcus aureus, 16 µM; against Escherichia coli, 32 µM; against Enterococcus faecalis it was 16 µM.
As to `CCCCCCCCCCCCCC[N+](C)(C)CCN(C)CCN(C)CC[N+](C)(C)CCCCCCCCCCCC`, the minimum inhibitory concentration (MIC) in the test with Pseudomonas aeruginosa is 8 µM; against Staphylococcus aureus, 1 µM; in the test with Escherichia coli, 2 µM; in the test on Enterococcus faecalis it was 1 µM.
For the molecule `CCCCCCCCCCCCCC[N+](C)(C)CCN(C)CCN(C)CC[N+](C)(C)CCCCCCCCCCCCCC`, the MIC with Pseudomonas aeruginosa was found to be 16 µM; with Staphylococcus aureus it was 2 µM; in the test on Escherichia coli it was 2 µM; in the test on Enterococcus faecalis, 1 µM.
As for `C=CC[N+](C)(CC[N+](C)(C)CCCCCCCCCCCC)CC[N+](C)(CC=C)CC[N+](C)(C)CCCCCCCCCCCC` (configuration not stated), the minimal inhibitory concentration (MIC) against Pseudomonas aeruginosa was found to be 2 µM; in the test with Staphylococcus aureus it was 1 µM; against Escherichia coli it was 1 µM; in the test with Enterococcus faecalis, 1 µM.
For the molecule `CCCCCCCCCCCC[N+](C)(C)Cc1ccccc1` [BENZODODECINIUM CHLORIDE], the MIC in the test on Pseudomonas aeruginosa was 63 µM; in the test on Staphylococcus aureus, 8 µM; against Escherichia coli, 32 µM; against Enterococcus faecalis, 8 µM.
